# Experiments:
# [1] = test system: AAVS1; assay: CAR insertion efficiency at AAVS1 in primary T-cells by flow cytometry; format: cell-based, human; conditions: primary Pan T-cells; recovery medium pretreated with 2 μM M3814; 75:50 pmol gNA:MAD7, 1.5 μg μL^−1 donor template, PGA
# Experimental: T-cells were isolated from human peripheral blood obtained from healthy adults by immune-magnetic negative selection using the EasySep Human T-cell Isolation Kit ([sequence] Technologies). After isolation, T-cells were activated in 25 μL mL^−1 ImmunoCult Human CD3/CD28/CD2 T-Cell Activator ([sequence] Technologies) in ImmunoCult-XF T-Cell Expansion Medium ([sequence] Technologies) containing 12.5 ng mL^−1 Human Recombinant IL-2, 5 ng mL^−1 IL-7, and 5 ng mL^−1 IL-15 ([sequence] Technologies) and seeded at 1.0×10^6 cells mL^−1. Until transfection 48 hours later, the cells were cultured at 37° C. in 5% CO2 incubators.
# Donor templates comprising site-specific homology arms, respective promoter, and respective gene (GFP or Hu19 scFv-CD8α-CD28-CD3ζ CAR) were amplified from corresponding pTwist Ampicillin high-copy plasmids (Twist Bioscience) using homology arms-specific PCR primers. […] Purified HDR templates were collected and quantified on NanoDrop One Microvolume UV-Vis Spectrophotometer (ThermoFisher Scientific). […] HDR templates were collected, diluted, and concentrations quantified using Qubit dsDNA HS Assay Kit (ThermoFisher Scientific). […]
# [2] = test system: AAVS1 locus; assay: INDEL frequency at the AAVS1 locus in Jurkat cells; format: cell-based, human
# Experimental: Ribonucleoprotein complexes (RNPs) were generated by incubating respective guide nucleic acids (gNAs) with MAD7 in the molar ratio of 3:2 gNA:MAD7 for 15 minutes at room temperature immediately before transfection. For Jurkat experiments, the RNP complexes were generated by mixing the respective gNA (150 pmol), MAD7 (100 pmol), and nuclease-free water, unless otherwise stated. […] Lonza 4D Nucleofector with Shuttle unit (V4SC-2960 Nucleocuvette Strips) was used for transfection, following the manufacturer's instructions. […] Extracted genomic DNA was quantified using the NanoDrop (ThermoFisher Scientific). […] The DNA was eluted from the beads with nuclease-free water and the size of the purified amplicons analyzed on a 2% agarose E-gel using the E-gel electrophoresis system (ThermoFisher Scientific). In the second PCR, unique pairs of Illumina-compatible indexes (Nextera XT Index Kit v2) were added to the amplicons using the KAPA HiFi HotStart Ready Mix (Roche). […] Sizes of the purified DNA fragments were validated on a 2% agarose gel using the E-gel electrophoresis system (ThermoFisher Scientific), quantified using Qubit dsDNA HS Assay Kit (Thermo Fisher) and then pooled in equimolar concentrations. […] The final library was sequenced on Illumina MiSeq System using the MiSeq Reagent Kit v.2 (300 cycles, 2×250 bp, paired-end reads). […]
Molecule,more efficient CAR insertion than other experiments [1] [times],activity of gNA targeting AAVS1 (INDEL frequency) [2]
COc1ccc([C@@H](O)c2cc(-c3ncnc4cc(N5CCOCC5)ccc34)c(F)cc2Cl)nn1 [M3814],~5,
"crAAVS1: highly active gNA targeting the AAVS1 safe-harbor locus (guide TTAGGATGGCCTTCTCCGACG; listed as DNA, further chemistry not given here)",,highly active
